In patent US20130041005A1, “PHARMACEUTICAL COMPOSITIONS COMPRISING NEUROPILIN INHIBITORS, AND THEIR USE FOR THE PREVENTION AND/OR TREATMENT OF ANGIOGENIC DISORDERS AND CANCERS” (TRAGEX PHARMA, priority 2011, published 2013):

Key:
Format in all cases: cell-based
U2OS = assay: WST-1 proliferation assay, U2OS; conditions: Homo sapiens
BT-474 = assay: WST-1 proliferation assay, BT-474; conditions: Homo sapiens; Breast BT-474, 72 h; read-out: Anti-proliferative activity IC50 (μM) ± SD
Excerpt: (§1) Several cancer cell lines were used: breast cancer cells (MDA-MB-231 (ATTCC® Number HTB-26™), MDA-MB-436 (ATTCC® Number HTB-130™), MDA-MB-438, BT-474 (ATTCC® Number HTB-20™)); cervical cancer cells (HeLa (ATTCC® Number CCL-2™)); colon cancer cells (HCT-116 (ATTCC® Number CCL-247™) and HT-29 (ATTCC® Number HTB-38™)); osteosarcoma cells (U2OS (ATTCC® Number HTB-96™)); pancreas cancer cells (MIA PaCa-2 (ATTCC® Number CRL-1420™) and Panc-10.5 (ATTCC® Number CRL-2547™)); prostate cancer cells (PC-3 (ATTCC® Number CRL-1435™) and LNCaP (ATTCC® Number CRL-1740™)); brain cancer cells (U87 glioblastoma (ATTCC® Number HTB-14™) and SH-SYSY neuroblastoma (ATTCC® Number CRL-2266™)). […]
(§2) After observation of cells under the microscope, old media were removed and the adherent cells washed gently twice with PBS (Phosphate Buffer Saline, —Ca^2+, —Mg^2+, Lonza cat no: 17-512F/12). […] 50 μl of this solution were transferred in 20 μl of isotonic solution and the cells were counted by count cellular (Beckman Coulter). […]
(§3) The cell proliferation WST-1 assay is a colorimetric assay for the quantification of cell proliferation and viability, based on the enzymatic cleavage of the tetrazolium salt WST-1 added to the culture medium, to a water soluble colored formazan dye, detected by absorbance at 450 nm, by mitochondrial succinate-tetrazolium reductase in viable cells. […]

U87 glioblastoma = assay: WST-1 proliferation assay, U87; conditions: Homo sapiens; for IC50: Brain U87, 72 h, read-out: Anti-proliferative activity IC50 (μM) ± SD; for inhibition at 0.1 µM / inhibition at 0.5 µM / inhibition at 1 µM: U87 glioblastoma
Excerpt: Several cancer cell lines were used: breast cancer cells (MDA-MB-231 (ATTCC® Number HTB-26™), MDA-MB-436 (ATTCC® Number HTB-130™), MDA-MB-438, BT-474 (ATTCC® Number HTB-20™)); cervical cancer cells (HeLa (ATTCC® Number CCL-2™)); colon cancer cells (HCT-116 (ATTCC® Number CCL-247™) and HT-29 (ATTCC® Number HTB-38™)); osteosarcoma cells (U2OS (ATTCC® Number HTB-96™)); pancreas cancer cells (MIA PaCa-2 (ATTCC® Number CRL-1420™) and Panc-10.5 (ATTCC® Number CRL-2547™)); prostate cancer cells (PC-3 (ATTCC® Number CRL-1435™) and LNCaP (ATTCC® Number CRL-1740™)); brain cancer cells (U87 glioblastoma (ATTCC® Number HTB-14™) and SH-SYSY neuroblastoma (ATTCC® Number CRL-2266™)).
(§4) All the cancer cell lines were maintained in cultured in DMEM GlutaMAX™ (GIBCO Invitrogen, France, cat no 31966047) enhanced with 10% foetal bovine serum (GIBCO Invitrogen, France, cat no 10270-106) and 1% penicillin G/streptomycin (GIBCO Invitrogen, France, cat no 15140-122). Only Panc-10.5 cells were cultivated in RPMI 1640 medium (Gibco) supplemented with 2 mM L-glutamine, 1.5 g/L sodium bicarbonate, 4.5 g/L glucose, 10 mM HEPES, 1 mM sodium pyruvate, 10 Units/ml human insulin, […] (SVF): 15% (75 ml in 500 ml of medium).
(§5) Cells were grown as subconfluent monolayer and cultured in 75 cm^2 flasks at 37° C., 5% CO2 in a humidified atmosphere, and medium was changed every two days. Only cells from passages 2-6 were used for the experiments.
After observation of cells under the microscope, old media were removed and the adherent cells washed gently twice with PBS (Phosphate Buffer Saline, —Ca^2+, —Mg^2+, Lonza cat no: 17-512F/12). All cells were detached with 3 ml of trypsin/EDTA (chelator of calcium and magnesium ions) (Lonza), incubated for 5 min at 37° C., and examined using a microscope to ensure that the cells were detached and floating. Then, 3 ml TNS (Trypsin Neutralizing Solution, Lonza, France, cat no CC-5002) or of culture medium were added to inactivate the trypsin, and the cell suspension was transferred in a falcon and centrifuged for 7 min at 1400 rpm. The supernatant was removed and the cell pellet resuspended in […] of culture medium. 50 μl of this solution were transferred in 20 μl of isotonic solution and the cells were counted by count cellular (Beckman Coulter). At day 0, 200 μl of cellular suspension (3.10^3 cells/well for the HUVEC cells, breast cancer cells (MDA-MB-231 1.10^4 cells/well, MDA-MB-436 1.10^4 cells/well, MDA-MB-438 2.10^4 cells/well, BT-474 2.5.10^4 cells/well); cervical cancer cells (HeLa 5.000 cells/well); colon cancer cells (HCT-116 5.10^3 cells/well, HCT-29 1.1.10^4 cells/well); osteosarcoma cells (U2OS 8.10^3 cells/well); pancreas cancer cells (MIA PaCa-2 5.10^3 cells/well, Panc-10.5 1.5.10^4 cells/well); prostate cancer cells (PC-3 4.10^3 cells/well, LNCaP 2.10^4 cells/well); brain cancer cells (U87 5.10^3 cells/well, SH-SYSY 8.10^4 cells/well)) were then plated on 96 well plates and incubated at 37° C. in a humidified atmosphere of 5% CO2 for 24 h.
At day 1, the compounds 1 or 2 of the invention were added at increasing concentrations (0.1-10 μM) in the wells and plates were incubated at 37° C. in a humidified atmosphere of 5% CO2 for 72 h.
(§6) The cell proliferation WST-1 assay is a colorimetric assay for the quantification of cell proliferation and viability, based on the enzymatic cleavage of the tetrazolium salt WST-1 added to the culture medium, to a water soluble colored formazan dye, detected by absorbance at 450 nm, by mitochondrial succinate-tetrazolium reductase in viable cells. An augmentation in enzyme activity will then lead to an increase in the amount of formazan dye formed, which directly correlates to the number of metabolically active cells in the culture.
After an incubation period of 72 h, at day 4, were prepared the 19 ml medium with reagent WST-1 1 ml ([…]). The medium was removed from the 96 microplate and 200 μl of solution WST-1/medium were added for each well. […]

OPM-2 = assay: WST-1 proliferation assay, OPM-2; conditions: Homo sapiens; Myeloma OPM-2; read-out: Anti-proliferative activity IC50 (μM) ± SD
Method: as §4
(§7) Cells were grown as subconfluent monolayer and cultured in 75 cm^2 flasks at 37° C., 5% CO2 in a humidified atmosphere, and medium was changed every two days. […]
as §3
(§8) After an incubation period of 72 h, at day 4, were prepared the 19 ml medium with reagent WST-1 1 ml ([…]). […] The cells were incubated at 37° C. in a humidified atmosphere of 5% CO2 for 1 h 30 and the absorbance at 450-655 nm was measured by Microplate Manager 5.2 (Bio-Rad).

MDA-MB-436 = assay: WST-1 proliferation assay, MDA-MB-436; conditions: Homo sapiens; Breast MDA-MB-436, 72 h; read-out: Anti-proliferative activity IC50 (μM) ± SD
Excerpt: as §1, §2, §3

DAUDI = assay: WST-1 proliferation assay, DAUDI; conditions: Homo sapiens; Burkitt's lymphoma DAUDI; read-out: Anti-proliferative activity IC50 (μM) ± SD
Method: as §4, §7, §3, §8

HUVEC cells = assay: WST-1 proliferation assay, HUVEC; conditions: for cytotoxicity for endothelial cell lines (HUVEC cells) in culture: FIG. 1 cell survival; for IC50: Homo sapiens, HUVEC, 72 h, read-out: Anti-proliferative activity on HUVEC cells (IC50)
Method: as §5
All cells were detached with 3 ml of trypsin/EDTA (chelator of calcium and magnesium ions) (Lonza), incubated for 5 min at 37° C., and examined using a microscope to ensure that the cells were detached and floating. […] The supernatant was removed and the cell pellet resuspended in […] of culture medium. 50 μl of this solution were transferred in 20 μl of isotonic solution and the cells were counted by count cellular (Beckman Coulter).
as §6
After an incubation period of 72 h, at day 4, were prepared the […] medium with reagent WST-1 […] ([…]). The medium was removed from the 96 microplate and 200 μl of solution WST-1/medium were added for each well. The cells were incubated at 37° C. in a humidified atmosphere of 5% CO2 for 1 h 30 and the absorbance at 450-655 nm was measured by Microplate Manager 5.2 (Bio-Rad).

MDA-MB-438 = assay: WST-1 proliferation assay, MDA-MB-438; conditions: Homo sapiens; MDA-MB-438, 0.05 μM
PC-3 = assay: WST-1 proliferation assay, PC-3; conditions: Homo sapiens; PC-3, 0.05 μM

Compound	inhibition at 0.05 µM (U2OS) [%]	IC50 (BT-474) [µM]	IC50 (U87 glioblastoma) [µM]	inhibition at 0.1 µM (U87 glioblastoma) [%]	inhibition at 0.5 µM (U87 glioblastoma) [%]	inhibition at 1 µM (U87 glioblastoma) [%]	IC50 (OPM-2) [µM]	IC50 (MDA-MB-436) [µM]	IC50 (DAUDI) [µM]	cytotoxicity for endothelial cell lines (HUVEC cells) in culture (HUVEC cells)	IC50 (HUVEC cells) [nM]	inhibition at 0.05 µM (MDA-MB-438) [%]	inhibition at 0.05 µM (PC-3) [%]
Cc1ccc(-c2nc3ccccc3[nH]2)cc1NC(=S)NC(=O)c1ccc2c(c1)OCCO2 [Compound 1, N-[5-(1H-benzimidazol-2-yl)-2-methylphenyl]-N′-(2,3-dihydro-1,4-benzodioxin-6-ylcarbonyl)thiourea]	9	2	1	0	45	54	2.5 ± 0.09	1.5 ± 0.02	1	cytotoxic	200 ± 10	2	0
O=C(NC(=S)Nc1cccc(-c2nc3ccccc3[nH]2)c1)c1ccc2c(c1)OCCO2 [Compound 2, N-[3-(1H-benzimidazol-2-yl)phenyl]-N′-(2,3-dihydro-1,4-benzodioxin-6-ylcarbonyl)thiourea]	18	1.6 ± 0.06	0.3 ± 0.02	44	60	61	0.5 ± 0.01	2.3 ± 0.03	0.5 ± 0.02	cytotoxic	50 ± 10	13	0
